Laboratory results from patent US9884839B2, “Inhibitors of 17Beta-hydroxysteroid dehydrogenases type 1 and type 2” (ElexoPharm GmbH, priority 2014, dated 2018).
pIC50: −log10 of the molar value. Read-outs that look alike come from different tables or passages of the source.

What was measured:
[1] = target: T1, rat 17β-HSD1 (Rattus norvegicus, UniProt P51657); assay: Inhibition of rat 17β-HSD1 (recombinant, HEK293 lysate); format: biochemical; settings: Cmpd conc. 250 nM; read-out: % Inhibition r17β-HSD1
T1 construct: made in house; host or cells: HEK293 cells, transient transfection; 1,000 g supernatant of the cell lysate
T1 sequence (P51657 1-344): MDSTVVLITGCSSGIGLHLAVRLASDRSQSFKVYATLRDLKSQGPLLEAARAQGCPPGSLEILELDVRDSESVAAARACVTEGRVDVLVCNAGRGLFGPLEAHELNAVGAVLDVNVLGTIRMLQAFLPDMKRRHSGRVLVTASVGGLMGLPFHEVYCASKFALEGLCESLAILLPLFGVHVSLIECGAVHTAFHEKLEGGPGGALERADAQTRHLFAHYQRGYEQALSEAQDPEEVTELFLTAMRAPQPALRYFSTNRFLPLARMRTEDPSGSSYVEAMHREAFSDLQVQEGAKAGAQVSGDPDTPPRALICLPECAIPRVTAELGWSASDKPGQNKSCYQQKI

[2] = target: T2, mouse 17β-HSD1 (Mus musculus, UniProt P51656); assay: Inhibition of mouse 17β-HSD1 (recombinant, HEK293 lysate); format: biochemical; settings: for pIC50: recombinant mouse enzyme, E1 10 nM, NADPH
T2 construct: made in house; host or cells: HEK293 cells, transient transfection; 1,000 g supernatant of the cell lysate
T2 sequence (P51656 1-344): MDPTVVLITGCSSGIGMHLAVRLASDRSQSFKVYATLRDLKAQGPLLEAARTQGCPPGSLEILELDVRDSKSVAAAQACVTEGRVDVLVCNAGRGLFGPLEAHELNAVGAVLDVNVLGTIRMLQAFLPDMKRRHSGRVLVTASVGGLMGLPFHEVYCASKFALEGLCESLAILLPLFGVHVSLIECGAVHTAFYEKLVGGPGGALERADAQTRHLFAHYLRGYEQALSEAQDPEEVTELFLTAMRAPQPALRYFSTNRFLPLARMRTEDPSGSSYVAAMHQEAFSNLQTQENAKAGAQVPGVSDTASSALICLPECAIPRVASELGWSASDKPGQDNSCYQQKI

[3] = target: T3, human 17β-HSD2 (Homo sapiens, UniProt P37059); assay: Inhibition of human 17β-HSD2 (conversion of [3H]-E2 to E1); format: biochemical; settings: for IC50: read-out: IC50 [nM] h17β-HSD2; for inhibition at 0.01 µM: read-out: % inhibition h17β-HSD2 @ 10 nM
T3 construct: 17β-HSD2 was obtained from the microsomal fraction; from tissue; host or cells: human placenta, microsomal fraction
T3 sequence (P37059 1-387): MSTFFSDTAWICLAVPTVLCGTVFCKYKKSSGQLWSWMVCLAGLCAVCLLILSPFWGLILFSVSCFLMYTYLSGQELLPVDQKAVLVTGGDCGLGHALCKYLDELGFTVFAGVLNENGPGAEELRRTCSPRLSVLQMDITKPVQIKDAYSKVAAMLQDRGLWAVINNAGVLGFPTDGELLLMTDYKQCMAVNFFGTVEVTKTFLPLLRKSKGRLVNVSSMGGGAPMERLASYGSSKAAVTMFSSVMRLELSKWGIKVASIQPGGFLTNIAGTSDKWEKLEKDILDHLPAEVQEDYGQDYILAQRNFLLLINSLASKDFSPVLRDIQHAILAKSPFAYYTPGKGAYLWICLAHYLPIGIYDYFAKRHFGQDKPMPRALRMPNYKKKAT

[4] = target: T4, human 17β-HSD1 (Homo sapiens, UniProt P14061); assay: Inhibition of human 17β-HSD1 (conversion of [3H]-E1 to E2, HPLC radioflow detection); format: biochemical; settings: for IC50: human placental cytosolic enzyme, E1 500 nM, NADH, Tables 1, 4-11, read-out: IC50 [nM] h17β-HSD1; for inhibition at 0.01 µM: read-out: % inhibition h17β-HSD1 @ 10 nM
T4 construct: For the partial purification of 17β-HSD1, the cytosolic fraction was precipitated with ammonium sulfate; from tissue; host or cells: human placenta, cytosolic fraction, ammonium sulfate precipitate
T4 sequence (P14061 1-328): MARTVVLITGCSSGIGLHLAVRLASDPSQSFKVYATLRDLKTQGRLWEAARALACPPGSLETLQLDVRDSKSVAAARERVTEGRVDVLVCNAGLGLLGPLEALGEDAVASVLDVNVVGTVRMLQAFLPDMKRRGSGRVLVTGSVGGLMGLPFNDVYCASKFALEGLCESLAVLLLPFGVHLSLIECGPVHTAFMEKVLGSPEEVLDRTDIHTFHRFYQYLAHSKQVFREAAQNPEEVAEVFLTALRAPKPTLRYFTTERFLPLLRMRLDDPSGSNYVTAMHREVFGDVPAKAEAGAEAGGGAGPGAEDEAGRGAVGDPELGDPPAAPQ

[5] = target: T5, mouse 17β-HSD2 (Mus musculus, UniProt P51658); assay: Inhibition of mouse 17β-HSD2 (liver microsomal fraction); format: biochemical; settings: for pIC50: read-out: IC50 m17β-HSD2; for inhibition at 0.1 µM: read-out: % inhibition m17β-HSD2 @ 100 nM; for inhibition at 0.05 µM: read-out: % inhibition m17β-HSD2 @ 50 nM
T5 construct: The pellet fractions containing the microsomal 17β-HSD2 were used for the determination of E1 formation; from tissue; host or cells: mouse liver, microsomal fraction
T5 sequence (P51658 1-381): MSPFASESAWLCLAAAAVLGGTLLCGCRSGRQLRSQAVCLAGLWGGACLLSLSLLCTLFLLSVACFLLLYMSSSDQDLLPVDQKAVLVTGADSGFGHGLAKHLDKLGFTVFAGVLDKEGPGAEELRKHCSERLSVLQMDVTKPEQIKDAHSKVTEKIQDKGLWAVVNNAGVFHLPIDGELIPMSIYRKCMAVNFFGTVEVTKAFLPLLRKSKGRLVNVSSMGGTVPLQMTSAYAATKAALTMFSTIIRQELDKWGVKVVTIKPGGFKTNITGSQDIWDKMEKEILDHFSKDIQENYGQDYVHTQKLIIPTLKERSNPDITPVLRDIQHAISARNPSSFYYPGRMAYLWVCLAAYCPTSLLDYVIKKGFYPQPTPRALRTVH

[6] = in vitro; settings: human, pooled human liver S9 fraction
[7] = human liver S9, 1 mg/mL; unit not given
[8] = read-out: % inhibition m17β-HSD1 @ 1 μM
[9] = read-out: Inhibition @ 1 μM m17β-HSD1
[10] = read-out: Inhibition @ 1 μM m17β-HSD2
[11] = read-out: % inhibition m17β-HSD2 @ 1 μM

inhibition at 1 µM [2, 9] [%] | IC50 [3] [nM] | IC50 [4] [nM] | half-life at 1 µM [6] [min] | CLint [7] | SMILES | also measured
30 |  |  |  |  | Nc1cccc(-c2ccc(C(=O)c3c(F)ccc(O)c3F)s2)c1 [Compound 1, [5-(3-Aminophenyl)thiophen-2-yl](2,6-difluoro-3-hydroxyphenyl)methanone] | inhibition at […] [1]: 51%; inhibition at 1 µM [2, 8]: 30%
32 | 9 | 2.1 |  |  | COc1c(Cl)cc(-c2ccc(C(=O)c3c(F)ccc(O)c3F)s2)cc1Cn1ccnn1 [Compound 31, [5-(3-Chloro-4-methoxy-5-[1,2,3]triazol-1-ylmethyl-phenyl)-thiophen-2-yl]-(2,6-difluoro-3-hydroxy-phenyl)-methanone] | inhibition at […] [1]: 39%; inhibition at 1 µM [5, 10]: 84%
9 | 18 | 59 |  |  | O=C(c1ccc(-c2cncc(F)c2)s1)c1cc(F)c(F)c(O)c1F [Compound 39, [5-(5-Fluoro-pyridin-3-yl)-thiophen-2-yl]-(2,4,5-trifluoro-3-hydroxy-phenyl)-methanone] | inhibition at 1 µM [5, 10]: 24%
46 | 3 | 2.5 |  |  | O=C(c1ccc(-c2ccc(O)c(F)c2)s1)c1cc(F)c(F)c(O)c1F [Compound 42, (5-(3-Fluoro-4-hydroxyphenyl)thiophen-2-yl)(2,4,5-trifluoro-3-hydroxyphenyl)methanone] | inhibition at 1 µM [5, 10]: 84%
 | 7.5 | 28.8 |  |  | O=C(c1ccc(-c2ccc3cc[nH]c3c2)s1)c1cc(F)c(F)c(O)c1F [Compound 43, (5-(1H-Indol-6-yl)thiophen-2-yl)(2,4,5-trifluoro-3-hydroxyphenyl)methanone] | pIC50 ([2]; read-out: IC50 m17β-HSD1): 5.94; pIC50 [5]: 6.95
 | 6.8 | 22.4 |  |  | NC(=O)c1cccc(-c2ccc(C(=O)c3cc(F)c(F)c(O)c3F)s2)c1 [Compound 44, 3-(5-(2,4,5-Trifluoro-3-hydroxybenzoyl)thiophen-2-yl)benzamide] | inhibition at 0.1 µM ([2]; read-out: % inhibition m17β-HSD1 @ 100 nM, compound 100 nM): 10%; inhibition at 0.1 µM [5]: 19%
 | 2.6 | 0.6 | 15 |  | COc1c(Cl)cc(-c2ccc(C(=O)c3cc(F)c(F)c(O)c3F)s2)cc1Cl [Compound 45, (5-(3,5-Dichloro-4-methoxyphenyl)thiophen-2-yl)(2,4,5-trifluoro-3-hydroxyphenyl)methanone] | pIC50 ([2]; read-out: IC50 m17β-HSD1): 5.76; pIC50 [5]: 7.05
13.4 | 2.3 | 1.2 |  |  | COc1c(C)cc(-c2ccc(C(=O)c3cc(F)c(F)c(O)c3F)s2)cc1C [Compound 46, (5-(4-Methoxy-3,5-dimethylphenyl)thiophen-2-yl)(2,4,5-trifluoro-3-hydroxyphenyl)methanone] | inhibition at 0.1 µM [5]: 16%
13.8 | 4.4 | 5.9 |  |  | O=C(c1ccc(-c2cccc(CO)c2)s1)c1cc(F)c(F)c(O)c1F [Compound 47, (5-(3-(Hydroxymethyl)phenyl)thiophen-2-yl)(2,4,5-trifluoro-3-hydroxyphenyl)methanone] | pIC50 [5]: 6.59
12.1 |  | 21 | 24.9 | 27.9 | Cn1cnc(S(=O)(=O)Nc2cccc(-c3ccc(C(=O)c4cc(F)c(F)c(O)c4F)s3)c2)c1 [Compound 48, 1-Methyl-N-(3-(5-(2,4,5-trifluoro-3-hydroxybenzoyl)thiophen-2-yl)phenyl)-1H-imidazole-4-sulfonamide] | pIC50 [5]: 6.81
 |  |  | 20.8 | 33.3 | Cc1c(N)cccc1-c1ccc(C(=O)c2cc(F)c(F)c(O)c2F)s1 [Compound 58, (5-(3-Amino-2-methylphenyl)thiophen-2-yl)(2,4,5-trifluoro-3-hydroxyphenyl)methanone] | inhibition at 0.01 µM [3]: 61%; inhibition at 0.01 µM [4]: 1.1%; inhibition at 0.05 µM [5]: 40%
 |  |  | 48.9 | 14.2 | O=C(c1ccc(-c2cccc3[nH]ccc23)s1)c1cc(F)c(F)c(O)c1F [Compound 62, (5-(1H-Indol-4-yl)thiophen-2-yl)(2,4,5-trifluoro-3-hydroxyphenyl)methanone] | inhibition at 0.01 µM [3]: 100%; inhibition at 0.01 µM [4]: 93%; inhibition at 0.05 µM [5]: 46%
 |  |  | 25 | 27.7 | CS(=O)(=O)Nc1cccc(-c2ccc(C(=O)c3cc(F)c(F)c(O)c3F)s2)c1 [Compound 63, N-(3-(5-(2,4,5-trifluoro-3-hydroxybenzoyl)thiophen-2-yl)phenyl)methanesulfonamide] | inhibition at 0.01 µM [3]: 77%; inhibition at 0.01 µM [4]: 53%; inhibition at 0.05 µM [5]: 38%
 |  |  | 27.4 | 25.3 | O=C(c1ccc(-c2ccc(O)cc2)s1)c1cc(F)c(F)c(O)c1F [Compound 68, (5-(4-Hydroxyphenyl)thiophen-2-yl)(2,4,5-trifluoro-3-hydroxyphenyl)methanone] | inhibition at 0.01 µM [3]: 96%; inhibition at 0.01 µM [4]: 66%; inhibition at 0.05 µM [5]: 42%
 |  |  | 22 | 31.6 | Cc1cc(-c2ccc(C(=O)c3cccc(O)c3Cl)s2)cc(C)c1O [Compound 79, (2-Chloro-3-hydroxyphenyl)(5-(4-hydroxy-3,5-dimethylphenyl)thiophen-2-yl)methanone] | inhibition at 0.01 µM [3]: 64%; inhibition at 0.01 µM [4]: 31%; inhibition at 0.05 µM [5]: 70%
 |  | 5 |  |  | O=C(c1cccc(O)c1)c1ccc(-c2ccc(O)c(Cl)c2)s1 [D, reference compound] | pIC50 [3]: 6.62; inhibition at 1 µM [2, 8]: 42%; inhibition at 1 µM [5, 11]: 9%
 |  |  |  |  | Cc1c(O)cccc1C(=O)c1ccc(-c2ccc(O)c(Cl)c2)s1 [E, reference compound] | inhibition at 1 µM ([3]; read-out: % inhibition h17β-HSD2 @ 1 μM): 93%; inhibition at 1 µM [2, 8]: 14%; inhibition at 1 µM ([4]; read-out: % inhibition h17β-HSD1 @ 1 μM): 76%; inhibition at 1 µM [5, 11]: 92%
 | 239 | 899 |  |  | Cc1cc(-c2ccc(C(=O)c3cccc(O)c3C)s2)cc(C)c1O [G, reference compound] | IC50 ([2]; Table 7, unit μM, read-out: IC50 m17β-HSD1): 35.5 µM; pIC50 [5]: 6.26
